For 16 molecules, IC50 results are on record in patent US20060004029A1, “Nitrogen-containing aromatic derivatives” (priority 2003, published 2006).

In one assay the target is T1, VEGFR2 (Homo sapiens, UniProt P35968).
T1 construct: coding for the cytoplasmic domain, beginning with lysine 791 and including the termination codon; made in house; host or cells: Sf9 insect cells, baculovirus (pFastBacHis)
As to the kind of experiment: Inhibition against receptor tyrosine kinase activity (HTRF), VEGFR2. In kind it is biochemical. Particulars: His6-VEGFR2 cytoplasmic domain, biotin-poly(GT), HTRF; read-out: VEGFR2 kinase IC50. How it is done:
This assay is used to determine inhibition of a test substance on tyrosine kinase activity. […] Expression in an appropriate expression system can produce a polypeptide with tyrosine kinase activity. […] The recombinant construct was transfected into insect cells (Spondoptea frugiperda9 (Sf9)) to prepare a recombinant Baculovirus.
For expression of the VEGFR2 tyrosine kinase, Sf9 cells were infected with the VEGFR2 recombinant virus and collected after 48 hours. The collected cells were rinsed with ice-cooled phosphate buffered saline (PBS) and then resuspended using 20 ml of ice-cooled Lysis Buffer (50 mM Tris-HCl (pH 8.5), 5 mM 2-mercaptoethanol, 100 mM KCl, 1 mM phenylmethylsulfonyl fluoride, 1% (v/v) NP-40) per 1.5×10^8 cells. The suspension was centrifuged at 12,000 rpm for 30 minutes at 4° C. and the supernatant was obtained. The supernatant was added to a Ni-NTA agarose column (3 ml, purchased from Qiagen) equilibrated with Buffer A {20 mM Tris-HCl (pH 8.5), 5 mM 2-mercaptoethanol, 500 mM KCl, 20 mM imidazole, 10% (v/v) glycerol}. The column was washed with 30 ml of Buffer A, and then with 6 ml of Buffer B {20 mM Tris-HCl (pH 8.5), 5 mM 2-mercaptoethanol, 1M KCl, 10% (v/v) glycerol}, and finally with 6 ml of Buffer A. After washing, it was eluted with 6 ml of Buffer C {20 mM Tris-HCl (pH 8.5), 5 mM 2-mercaptoethanol, 100 mM KCl, 100 mM imidazole, 10% (v/v) glycerol}. The eluate was placed on a dialysis membrane (purchased from Spectrum Laboratories) and dialyzed with a dialysis buffer {20 mM Tris-HCl (pH 7.5), 10% (v/v) glycerol, 1 mM dithiothreitol, 0.1 mM Na3VO4, 0.1 mM EGTA}. […] Using the same method for the cytoplasmic domains of FGFR1, PDGFRβ and HGFR yielded respective recombinant proteins fused with 6 histidine residues at the N-terminal (His6-FGFR1, His6-PDGFRβ or His6-HGFR).
The tyrosine kinase reaction was conducted as follows. […] Next, 10 μl of 4 μM ATP (diluted with distilled water) was added prior to incubation at 30° C. for 10 minutes, and then 10 μl of 500 mM EDTA (pH 8.0) was added.
The tyrosine phosphorylation rate for the biotin-poly(GT) was expressed as the delta F % value as described in the HTRF Standard Experiment Methods text by CIS Diagnostics Co. The delta F % value in the presence of the test substance was determined as a ratio (%) with the delta F % value with addition of His6-VEGFR2 in the absence of the test substance defined as 100% and the delta F % value in the absence of both the test substance and His6-VEGFR2 defined as 0%.
A general note: In TR-FRET formats the signal depends on donor and acceptor labels being close together.

The target in another assay is T2, FGFR1 (Homo sapiens, UniProt P11362).
T2 construct: made in house; host or cells: Sf9 insect cells, baculovirus (pFastBacHis), by the same method as VEGFR2
T2 sequence (P11362 398-822 limits assumed): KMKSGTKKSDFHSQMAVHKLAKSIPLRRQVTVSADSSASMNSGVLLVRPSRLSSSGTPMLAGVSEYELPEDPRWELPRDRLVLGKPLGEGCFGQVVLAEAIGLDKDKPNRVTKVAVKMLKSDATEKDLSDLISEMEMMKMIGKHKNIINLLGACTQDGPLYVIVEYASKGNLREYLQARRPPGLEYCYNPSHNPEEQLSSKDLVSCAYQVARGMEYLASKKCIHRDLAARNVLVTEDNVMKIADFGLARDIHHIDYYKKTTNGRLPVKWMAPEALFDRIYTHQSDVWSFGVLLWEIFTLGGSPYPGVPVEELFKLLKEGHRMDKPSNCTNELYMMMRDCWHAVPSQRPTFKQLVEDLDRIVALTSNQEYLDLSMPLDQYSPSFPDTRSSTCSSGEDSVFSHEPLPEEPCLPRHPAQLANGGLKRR
Description: Inhibition against receptor tyrosine kinase activity (HTRF), FGFR1. In kind it is biochemical. As to conditions: His6-FGFR1 cytoplasmic domain, biotin-poly(GT), HTRF; read-out: FGFR1 kinase IC50. The text has this:
This assay is used to determine inhibition of a test substance on tyrosine kinase activity. DNA coding for the cytoplasmic domain of VEGFR2 is obtained by total cDNA synthesis (Edwards M, International Biotechnology Lab 5(3), 19-25, 1987) or by cloning. Expression in an appropriate expression system can produce a polypeptide with tyrosine kinase activity. […] For VEGFR2 (GenBank Accession No. L04947), the 1.7 kb DNA fragment described by Terman et al. (Oncogene, 6(9), 1677-1683, 1991), coding for the cytoplasmic domain, beginning with lysine 791 and including the termination codon, was isolated from a human placental cDNA library (purchased from Clontech Laboratories, Inc.) and cloned in a Baculovirus expression vector (pFastBacHis, purchased from GIBCO BRL). The recombinant construct was transfected into insect cells (Spondoptea frugiperda9 (Sf9)) to prepare a recombinant Baculovirus. (Instructions for preparation and use of recombinant Baculovirus may be found in standard texts, such as “Bac-To-Bac Baculovirus Expression System” (GIBCO BRL).) The cytoplasmic fragment starting from lysine 398 (FGFR1, GenBank Accession No. X52833), the cytoplasmic fragment starting from lysine 558 (PDGFRβ, GenBank Accession No. M21616) or the cytoplasmic fragment starting from lysine 974 (HGFR, GenBank Accession No. J02958) may be cloned and expressed by the same method for use in assays for other tyrosine kinases. EGFR was purchased from Sigma Co. (Product No. E-2645).
For expression of the VEGFR2 tyrosine kinase, Sf9 cells were infected with the VEGFR2 recombinant virus and collected after 48 hours. The collected cells were rinsed with ice-cooled phosphate buffered saline (PBS) and then resuspended using 20 ml of ice-cooled Lysis Buffer (50 mM Tris-HCl (pH 8.5), 5 mM 2-mercaptoethanol, 100 mM KCl, 1 mM phenylmethylsulfonyl fluoride, 1% (v/v) NP-40) per 1.5×10^8 cells. The suspension was centrifuged at 12,000 rpm for 30 minutes at 4° C. and the supernatant was obtained. The supernatant was added to a Ni-NTA agarose column (3 ml, purchased from Qiagen) equilibrated with Buffer A {20 mM Tris-HCl (pH 8.5), 5 mM 2-mercaptoethanol, 500 mM KCl, 20 mM imidazole, 10% (v/v) glycerol}. The column was washed with 30 ml of Buffer A, and then with 6 ml of Buffer B {20 mM Tris-HCl (pH 8.5), 5 mM 2-mercaptoethanol, 1M KCl, 10% (v/v) glycerol}, and finally with 6 ml of Buffer A. After washing, it was eluted with 6 ml of Buffer C {20 mM Tris-HCl (pH 8.5), 5 mM 2-mercaptoethanol, 100 mM KCl, 100 mM imidazole, 10% (v/v) glycerol}. The eluate was placed on a dialysis membrane (purchased from Spectrum Laboratories) and dialyzed with a dialysis buffer {20 mM Tris-HCl (pH 7.5), 10% (v/v) glycerol, 1 mM dithiothreitol, 0.1 mM Na3VO4, 0.1 mM EGTA}. After dialysis, it was supplied for SDS-electrophoresis, and the recombinant protein (His6-VEGFR2, cytoplasmic domain of VEGFR2 fused with 6 histidine residues at the N-terminus) detected at a molecular weight of approximately 100 kDa with Coumassie Brilliant Blue staining was assayed using BSA (bovine serum albumin, purchased from Sigma Co.) as the standard substance, and stored at −80° C. until use. Using the same method for the cytoplasmic domains of FGFR1, PDGFRβ and HGFR yielded respective recombinant proteins fused with 6 histidine residues at the N-terminal (His6-FGFR1, His6-PDGFRβ or His6-HGFR).
The tyrosine kinase reaction was conducted as follows. In the case of VEGFR2, for example, 10 μl of a kinase reaction solution {200 mM Hepes (pH 7.4), 80 mM MgCl2, 16 mM MnCl2, 2 mM Na3VO4}, 250 ng of biotin-bound poly(Glu4:Tyr1) (biotin-poly(GT), purchased from CIS Diagnostics Co.) (6 μl of a 15-fold dilution with distilled water), 15 ng of His6-VEGFR2 (10 μl of a 240-fold dilution with 0.4% BSA solution) and the test substance dissolved in dimethyl sulfoxide (4 μl of a 100-fold dilution with 0.1% BSA solution) were added into each well of a 96-well round-bottom plate (NUNC Co., Product No. 163320), to a total of 30 μl. […]

T1 sequence (P35968 786-1356 limits assumed): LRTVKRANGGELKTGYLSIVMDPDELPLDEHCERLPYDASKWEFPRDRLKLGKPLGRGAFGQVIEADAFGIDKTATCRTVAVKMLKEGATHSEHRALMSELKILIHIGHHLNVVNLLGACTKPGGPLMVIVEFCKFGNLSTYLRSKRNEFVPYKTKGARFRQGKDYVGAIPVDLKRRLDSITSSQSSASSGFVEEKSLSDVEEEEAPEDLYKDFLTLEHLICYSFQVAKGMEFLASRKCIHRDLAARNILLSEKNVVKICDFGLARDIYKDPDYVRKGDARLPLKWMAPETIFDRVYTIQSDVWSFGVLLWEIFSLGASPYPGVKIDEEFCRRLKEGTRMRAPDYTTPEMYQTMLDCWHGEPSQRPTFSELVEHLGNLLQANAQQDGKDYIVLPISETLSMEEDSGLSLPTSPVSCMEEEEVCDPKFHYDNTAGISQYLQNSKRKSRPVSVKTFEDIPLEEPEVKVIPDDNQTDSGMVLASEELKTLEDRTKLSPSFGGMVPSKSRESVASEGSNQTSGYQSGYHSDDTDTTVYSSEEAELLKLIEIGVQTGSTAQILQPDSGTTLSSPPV

Broadly, the IC50 is the midpoint of a concentration-inhibition curve. Turning to `CCNC(=O)n1ccc2cc(Oc3ccnc(NC(=O)N4CCCC4)c3)ccc21` [Example 81, N1-Ethyl-5-((2-((pyrrolidin-1-ylcarbonyl)amino)-4-pyridyl)oxy)-1H-1-indolecarboxamide], the results for the half-maximal inhibitory concentration (IC50) on VEGFR2 and on FGFR1 were 0.012 µM and 0.038 µM, respectively.

For the molecule `CCNC(=O)n1ccc2cc(Oc3ccnc(NC(=O)N4CCOCC4)c3)ccc21` [Example 82, N4-(4-((1-(Ethylamino)carbonyl-1H-5-indolyl)oxy)-2-pyridyl)-4-morpholinecarboxamide], the IC50 on VEGFR2 worked out at 0.015 µM; on FGFR1, 0.024 µM.

Take `O=C(Nc1cc(Oc2ccc3c(ccn3C(=O)NC3CC3)c2)ccn1)N1CCCC1` [Example 88, N1-Cyclopropyl-5-(2-((pyrrolidin-1-ylcarbonyl)amino)-4-pyridyl)oxy-1H-1-indolecarboxamide]: the results for the IC50 on VEGFR2 and at FGFR1 were 0.014 µM and 0.024 µM, respectively.

Consider `CNC(=O)n1cc(Cl)c2cc(Oc3ccnc(NC(=O)N4CCC(O)CC4)c3)ccc21` [Example 104, N1-Methyl-3-chloro-5-(2-((4-hydroxypiperidino)carbonyl)amino-4-pyridyl)oxy-1H-1-indolecarboxamide], for which the IC50 was determined as 0.0039 µM on VEGFR2 and 0.019 µM on FGFR1.

For `CNC(=O)Nc1cc(Oc2ccc3c(ccn3C(=O)NC)c2)ccn1` [Example 116, N1-Methyl-5-(2-((methylamino)carbonyl)amino-4-pyridyl)oxy-1H-1-indolecarboxamide], the figures for the half-maximal inhibitory concentration (IC50) at VEGFR2 and on FGFR1 were 0.014 µM and 0.087 µM, respectively.

As to `CCN(CC)C(=O)Nc1cc(Oc2ccc3c(ccn3C(=O)NC)c2)ccn1` [Example 119, N1-Methyl-5-(2-((diethylamino)carbonyl)amino-4-pyridyl)oxy-1H-1-indolecarboxamide], the results for the IC50 at VEGFR2 and on FGFR1 were 0.021 µM and 0.12 µM, respectively.

Take `C#CCNC(=O)n1ccc2cc(Oc3ccnc(NC(=O)N4CCCC4)c3)ccc21` [Example 139, N1-(2-Propynyl)-5-(2-((pyrrolidin-1-yl)carbonyl)amino-4-pyridyl)oxy-1H-1-indolecarboxamide]: the 50% inhibitory concentration (IC50) on VEGFR2 was 0.0063 µM; on FGFR1, 0.19 µM.

On to `CNC(=O)n1ccc2cc(Oc3ccnc(NC(=O)N4CCC4)c3)ccc21` [Example 206, N1-Methyl-5-(2-(azetidin-1-ylcarbonyl)amino-4-pyridyl)oxy-1H-1-indolecarboxamide], for which the IC50 is 0.0041 µM on VEGFR2 and 0.0035 µM on FGFR1.

On to `CCNC(=O)n1ccc2cc(Oc3ccnc(NC(=O)N4CCC4)c3)ccc21` [Example 207, N1-Ethyl-5-(2-(azetidin-1-ylcarbonyl)amino-4-pyridyl)oxy-1H-1-indolecarboxamide], for which the IC50 on VEGFR2 amounted to 0.0046 µM; on FGFR1, 0.012 µM.

Consider `O=C(Nc1cc(Oc2ccc3c(ccn3C(=O)NC3CC3)c2)ccn1)N1CCC1` [Example 208, N1-Cyclopropyl-5-(2-(azetidin-1-ylcarbonyl)amino-4-pyridyl)oxy-1H-1-indolecarboxamide], for which the half-inhibitory concentration (IC50) at VEGFR2 came out at 0.0077 µM; on FGFR1, 0.0068 µM.

`CNC(=O)n1ccc2cc(Oc3ccnc(NC(=O)N4CCC(N5CCOCC5)CC4)c3)ccc21` [Example 209, N1-Methyl-5-(2-(((4-(morpholin-4-yl)piperidin-1-yl)carbonyl)amino)pyridin-4-yloxy)-1H-1-indolecarboxamide]: the half-inhibitory concentration (IC50) worked out at 0.017 µM at VEGFR2 and 0.029 µM at FGFR1.

Consider `CNC(=O)n1ccc2cc(Oc3ccnc(NC(=O)N4CCC(N5CCC5)CC4)c3)ccc21` [Example 210, N1-Methyl-5-(2-(((4-(azetidin-1-yl)piperidin-1-yl)carbonyl)amino)pyridin-4-yloxy)-1H-1-indolecarboxamide], for which the IC50 at VEGFR2 was 0.0081 µM; on FGFR1 it was 0.04 µM.

For `CCN(CC)C1CCN(C(=O)Nc2cc(Oc3ccc4c(ccn4C(=O)NC)c3)ccn2)CC1` [Example 211, N1-Methyl-5-(2-(((4-(diethylamino)piperidin-1-yl)carbonyl)amino)pyridin-4-yloxy)-1H-1-indolecarboxamide], the results for the IC50 at VEGFR2 and on FGFR1 were 0.045 µM and 0.036 µM, respectively.

Turning to `CNC(=O)n1ccc2cc(Oc3ccnc(NC(=O)N4CCC(N5CCC(O)CC5)CC4)c3)ccc21` [Example 212, N1-Methyl-5-(2-(((4-(4-hydroxypiperidin-1-yl)piperidin-1-yl)carbonyl)amino)pyridin-4-yloxy)-1H-1-indolecarboxamide], the half-inhibitory concentration (IC50) on VEGFR2 is 0.0086 µM; at FGFR1, 0.019 µM.

For `CCCNC(=O)n1ccc2cc(Oc3ccnc(NC(=O)N4CCCC4)c3)ccc21` [Example 213, N1-Propyl-5-(2-(pyrrolidin-1-ylcarbonyl)amino-4-pyridyl)oxy-1H-1-indolecarboxamide], the half-maximal inhibitory concentration (IC50) on VEGFR2 was 0.01 µM; at FGFR1 it was 0.33 µM.

For the molecule “N1-Methyl-5-(2-((4-(2-hydroxy-2-methylpropionyl)piperazin-1-yl)carbonyl)amino-4-pyridyl)oxy-1H-indolecarboxamide [Example 28]”, the 50% inhibitory concentration (IC50) on VEGFR2 was found to be 0.0045 µM; on FGFR1, 0.0041 µM.
